In US12116357B2, “Heteroaryl-triazole and heteroaryl-tetrazole compounds as pesticides” (Bayer Aktiengesellschaft, priority 2018, dated 2024):

Experiments:
Format in all cases: in vivo
Ctenocephalides felis [1] = experiment: Ctenocephalides felis in-vitro contact test, adult cat flea; conditions: 5 μg/cm^2, after 48 hours, read-out: efficacy (fleas dead or moribund)
Method: (§1) 9 mg compound is solved in 1 ml acetone and diluted with acetone to the desired concentration. 250 μl of the test solution is filled in 25 ml glass test tubes and homogeneously distributed on the inner walls by rotation and tilting on a shaking device (2 h at 30 rpm). With a compound concentration of 900 ppm, an inner surface of 44.7 cm^2 and a homogeneous distribution, a dose of 5 μg/cm^2 is achieved.
(§2) After the solvent has evaporated, each test tube is filled with 5-10 adult cat fleas (Ctenocephalides felis), closed with a perforated lid and incubated in a lying position at room temperature and relative humidity. After 48 hours efficacy is determined. The fleas are patted on the ground of the tubes and are incubated on a heating plate at 45-50° C. for at most 5 minutes. Immotile or uncoordinated moving fleas, which are not able to escape the heat by climbing upwards, are marked as dead or moribund.
An efficacy of 100% means all fleas are dead or moribund; 0% means no fleas are dead or moribund.

Myzus persicae [2] = experiment: Myzus persicae oral test; conditions: 120 h
Method: • Solvent: 100 parts by weight acetone
To produce a suitable preparation of active compound, 1 part by weight of active compound is mixed with the stated amount of solvent, and the concentrate is diluted with water to the desired concentration. 50 μl compound solution is filled in microtiter plates and 150 μl IPL41 insect medium (33%+15% sugar) is added to obtain a total volume of 200 μl per well. Afterwards the plates are sealed with parafilm through which a mixed population of the green peach aphid (Myzus persicae) can suck on the compound preparation.
(§3) After 5 days mortality in % is determined. 100% means all aphids have been killed and 0% means none of the aphids have been killed.

Myzus persicae [3] = experiment: Myzus persicae spray test; conditions: 120 h
Method: (§4) • Solvent: 78.0 parts by weight acetone • 1.5 parts by weight dimethylformamide • Emulsifier: alkylarylpolyglycol ether
(§5) To produce a suitable preparation of active compound, 1 part by weight of active compound is mixed with the stated amount of solvents and is diluted with water, containing an emulsifier concentration of 1000 ppm, to the desired concentration. Further test concentrations are prepared by dilution with emulsifier containing water.
Chinese cabbage (Brassica pekinensis) leaf disks infected with all instars of the green peach aphid (Myzus persicae), are sprayed with a preparation of the active ingredient of the desired concentration.
as §3

Nezara viridula = Nezara viridula spray test; conditions: 96 h
Method: (§6) • Solvent: 78.0 parts by weight of acetone • 1.5 parts by weight of dimethylformamide • Emulsifier: alkylarylpolyglycol ether
as §5, with “solvent,” for “solvents”, “and the concentrate” for “and”
Barley plants (Hordeum vulgare) infested with larvae of the southern green stink bug (Nezara viridula) are sprayed with a test solution containing the desired concentration of the active ingredient.
After 4 days mortality in % is determined. 100% means all the stink bugs have been killed; 0% means none of the stink bugs have been killed.

Spodoptera frugiperda = Spodoptera frugiperda spray test; conditions: 168 h
Method: as §4, §5
Maize (Zea mays) leaf sections are sprayed with a preparation of the active ingredient of the desired concentration. Once dry, the leaf sections are infested with fall armyworm larvae (Spodoptera frugiperda).
After 7 days mortality in % is determined. 100% means all caterpillars have been killed and 0% means none of the caterpillars have been killed.

Ctenocephalides felis [4] = experiment: Ctenocephalides felis oral test; conditions: 48 h, 100 ppm in cattle blood, after 2 days
Method: (§7) • Solvent: dimethyl sulfoxide
To produce a suitable preparation of active compound, 10 mg of active compound are dissolved in 0.5 ml solvent, and the concentrate is diluted with cattle blood to the desired concentration.
Approximately 20 adult unfed cat fleas (Ctenocephalides felis) are placed in flea chambers. The blood chamber, sealed with parafilm on the bottom, are filled with cattle blood supplied with compound solution and placed on the gauze covered top of the flea chamber, so that the fleas are able to suck the blood. The blood chamber is heated to 37° C. whereas the flea chamber is kept at room temperature.
After 2 days mortality in % is determined. 100% means all the fleas have been killed; 0% means none of the fleas have been killed.

Nilaparvata lugens = Nilaparvata lugens spray test; conditions: 96 h
Method: as §6, §5
Rice plants (Oryza sativa) are sprayed with a preparation of the active ingredient of the desired concentration and the plants are infested with the brown planthopper (Nilaparvata lugens).
After 4 days mortality in % is determined. 100% means all planthoppers have been killed and 0% means none of the planthoppers have been killed.

Phaedon cochleariae = Phaedon cochleariae spray test; conditions: 168 h, after 7 days
Method: as §6, §5
Chinese cabbage (Brassica pekinensis) leaf disks are sprayed with a preparation of the active ingredient of the desired concentration. Once dry, the leaf disks are infested with mustard beetle larvae (Phaedon cochleariae).
After 7 days mortality in % is determined. 100% means all beetle larvae have been killed and 0% means none of the beetle larvae have been killed.

[5] = system: Aedes aegypti strain MONHEIM; experiment: Aedes aegypti test (surface treatment & contact assay); conditions: 24 hours after contact, read-out: efficacy (mortality); for mortality at 20 mg/m2: surface concentration 20 mg/m^2, 30 min exposure
Method: (§8) • Solvent: Aceton+2000 ppm rapeseed oil methyl ester (RME)
(§9) In order to produce a sufficient, active ingredient containing solution it is necessary to solve the test compound in the solvent-mix (acetone at 2 mg/ml/RME 2000 ppm). This solution is pipetted onto a glazed tile and after evaporation of the acetone, adult mosquitoes of the species Aedes aegypti strain MONHEIM are placed onto the dried surface. The exposure time is 30 minutes.
(§10) Mortality in percent (%) is determined 24 hours after contact of the insects to the treated surface. 100% mortality means that all tested insects are dead, whereas 0% means that no insect died.

[6] = system: Anopheles funestus strain FUMOZ-R; experiment: Anopheles funestus test (surface treatment & contact assay); conditions: 24 hours after contact, read-out: efficacy (mortality); for mortality at 4 mg/m2: surface concentration 4 mg/m^2, 30 min exposure; for mortality at 20 mg/m2: surface concentration 20 mg/m^2, 30 min exposure
Method: as §8
as §9, with “Anopheles funestus” for “Aedes aegypti”, “FUMOZ-R (Hunt et al., Med. Vet. Entomol. 2005 September; 19(3): 271-275)” for “MONHEIM”
as §10

Rhipicephalus sanguineus = Rhipicephalus sanguineus in-vitro contact test, adult brown dog ticks
Method: as §1
as §2, with “brown dog ticks (Rhipicephalus sanguineus),” for “cat fleas (Ctenocephalides felis),”, “ticks” for “fleas”, “ticks,” for “fleas,”
An efficacy of 100% means all ticks are dead or moribund; 0% means no ticks are dead or moribund.

Boophilus microplus = Boophilus microplus injection test; conditions: Rhipicephalus microplus, 168 h, 20 μg/animal, egg deposition after 7 days, read-out: efficacy (infertile eggs)
Method: as §7
To produce a suitable preparation of active compound, 10 mg of active compound are dissolved in 0.5 ml solvent, and the concentrate is diluted with solvent to the desired concentration.
Five adult engorged female ticks (Boophilus microplus) are injected with 1 μl compound solution into the abdomen. The ticks are transferred into replica plates and incubated in a climate chamber.
After 7 days egg deposition of fertile eggs is monitored. Eggs where fertility is not visible are stored in a climate chamber till hatching after about 42 days. An efficacy of 100% means all eggs are infertile; 0% means all eggs are fertile.

[7] = system: Musca domestica strain WHO-N; experiment: Musca domestica test (surface treatment & contact assay); conditions: 24 hours after contact, read-out: efficacy (mortality)
Method: as §8
as §9, with “flies” for “mosquitoes”, “Musca domestica” for “Aedes aegypti”, “WHO-N” for “MONHEIM”
as §10

[8] = surface concentration 4 mg/m^2, 30 min exposure

| SMILES | pest or weed control at 5 µg/cm2 (Ctenocephalides felis [1]) [%] | mortality at 4 ppm (Myzus persicae [2]) [%] | mortality at 500 g/ha (Myzus persicae [3]) [%] | mortality at 500 g/ha (Nezara viridula) [%] | mortality at 500 g/ha (Spodoptera frugiperda) [%] | mortality at 100 ppm (Ctenocephalides felis [4]) [%] | mortality at 20 ppm (Myzus persicae [2]) [%] | mortality at 500 g/ha (Nilaparvata lugens) [%] | mortality at 500 g/ha (Phaedon cochleariae) [%] | mortality at 20 mg/m2 [5] [%] | mortality at 4 mg/m2 [6] [%] | mortality at 20 mg/m2 [6] [%] | efficacy (ticks dead or moribund) (Rhipicephalus sanguineus; 5 μg/cm^2, after 48 hours) [%] | pest or weed control at 0.02 mg (Boophilus microplus) [%] | mortality at 4 mg/m2 [5, 8] [%] | mortality at 20 mg/m2 ([7]; surface concentration 20 mg/m^2, 30 min exposure) [%] | mortality at 4 mg/m2 [7, 8] [%] | efficacy (ticks dead or moribund) (Rhipicephalus sanguineus; 1 μg/cm^2, after 48 hours) [%] |
| --- | --- | --- | --- | --- | --- | --- | --- | --- | --- | --- | --- | --- | --- | --- | --- | --- | --- | --- |
| CSCCN(C(=O)c1cc(Cl)cc(Cl)c1)C(C)c1ncnn1-c1ccc(C#N)cn1 (stereo not drawn) [Example I-036] | 100 | 100 | 90 | 90 | 100 |  |  |  |  |  |  |  |  |  |  |  |  |  |
| CSCCN(C(=O)c1cc(F)cc(C2CC2)c1)C(C)c1ncnn1-c1ccc(C#N)cn1 (stereo not drawn) [Example I-040] | 100 |  | 100 |  |  |  |  |  |  |  |  |  |  |  |  |  |  |  |
| CC(c1ncnn1-c1ncccn1)N(C(=O)c1cc(Cl)cc(C(F)(F)F)c1)C1CS(=O)(=O)C1 (stereo not drawn) [Example I-025] |  | 100 |  | 100 |  | 100 | 100 | 90 | 100 | 90 to 100 | 85 to 100 | 85 to 100 |  |  |  |  |  |  |
| CCON(C(=O)c1cccc(C(F)(F)F)c1)C(C)c1ncnn1-c1ncccn1 (stereo not drawn) [Example I-029] | 100 | 100 |  | 100 |  | 80 |  |  |  |  |  |  | 80 | 100 |  |  |  |  |
| CSCCN(C(=O)c1cc(Cl)cc(S(F)(F)(F)(F)F)c1)C(C)c1ncnn1-c1ccc(C#N)cn1 (stereo not drawn) [Example I-039] | 100 |  | 100 | 100 | 100 |  |  |  |  |  |  |  |  |  |  |  |  |  |
| CC(=O)NCCN(C(=O)c1cc(Cl)cc(C(F)(F)F)c1)C(C)c1ncnn1-c1ncccn1 (stereo not drawn) [Example I-043] |  | 100 | 100 | 100 | 100 |  |  |  |  |  |  |  |  |  |  |  |  |  |
| CSCCN(C(=O)c1cc(Cl)cc(S(C)(=O)=O)c1)C(C)c1ncnn1-c1ncccn1 (stereo not drawn) [Example I-032] | 100 | 100 | 90 | 100 |  |  |  | 100 |  |  |  |  |  |  |  |  |  |  |
| CCOC(=O)NCCN(C(=O)c1cc(Cl)cc(C(F)(F)F)c1)C(C)c1ncnn1-c1ncccn1 (stereo not drawn) [Example I-042] |  | 100 | 100 | 100 | 100 |  |  | 100 |  |  |  |  |  |  |  |  |  |  |
| CC(c1ncnn1-c1ncccn1)N(CC1OCCO1)C(=O)c1cc(Cl)cc(C(F)(F)F)c1 (stereo not drawn) [Example I-023] | 80 | 100 | 100 |  | 100 | 100 |  |  |  |  |  | 85 to 100 |  | 100 |  |  |  |  |
| COCCN(C(=O)c1cc(Cl)cc(S(C)(=O)=O)c1)C(C)c1ncnn1-c1ncccn1 (stereo not drawn) [Example I-031] | 80 | 100 | 100 | 100 |  | 100 |  | 100 |  |  |  | 85 to 100 |  | 100 |  |  |  |  |
| CC(c1ncnn1-c1ncccn1)N(Cc1ncccn1)C(=O)c1cc(Cl)cc(C(F)(F)F)c1 (stereo not drawn) [Example I-010] | 100 | 100 |  | 100 | 100 | 100 | 100 |  | 100 | 90 to 100 | 85 to 100 | 85 to 100 |  | 100 | 80 to 100 | 90 to 100 |  |  |
| CC(c1ncnn1-c1ncccn1)N(CCNS(C)(=O)=O)C(=O)c1cc(Cl)cc(C(F)(F)F)c1 (stereo not drawn) [Example I-041] |  | 100 | 90 |  | 100 |  |  |  |  |  |  |  |  |  |  |  |  |  |
| CC(c1ncnn1-c1ncccn1)N(CC1CSC1)C(=O)c1cc(Cl)cc(C(F)(F)F)c1 (stereo not drawn) [Example I-011] |  | 100 | 100 | 100 | 100 | 100 | 100 | 100 | 100 | 90 to 100 | 85 to 100 | 85 to 100 |  | 95 |  |  | 90 to 100 |  |
| COCCN(C(=O)c1cc(Cl)cc(C(F)(F)F)c1)C(C)c1ncnn1-c1ncccn1 (stereo not drawn) [Example I-005] |  | 100 |  | 90 | 100 | 100 | 100 |  | 100 |  |  |  | 80 | 100 |  |  |  | 80 |
